# Assay results from US20090018106A1, “INTRAVENOUS FORMULATIONS OF PYRIDOXAL 5'- PHOSPHATE AND METHOD OF PREPARATION” (Medicure International Inc., priority 2005, published 2009).
# Where two headings read alike, the source gives them in different places.
# What was measured:
# [1] = Single intravenous dose escalation of P5P, plasma pharmacokinetics (Examples Two and Three); format: in vivo, human; conditions: for Cmax / MRT / Tmax / Vd / clearance / AUC / half-life / AUC(0-t): both sexes, human, plasma; for Cmax / MRT / Tmax / Vd / clearance / AUC / half-life: iv; for AUC(0-t): read-out: AUC-T
# Description: A phase one clinical trial was conducted to compare the pharmacokinetics of intravenously administered P5P and orally administered P5P. The trial was a single dose escalation study.
# For intravenous administration, P5P was administered by bolus injection under fasting conditions. The following doses of P5P were studied: 1, 5, 10, and 20 mg/kg. 6 subjects were assigned to each dosage group.
# P5P, pyridoxal, and 4-pyridoxic acid were evaluated in both plasma and urine over a 24 hour interval following either intravenous or oral dosing. The results are set out below in Tables 2 and 3.
# Methodology—This was a single-blind, single-dose escalation, non-randomized, 4-phase, non-crossover study designed to evaluate the safety and […] subjects under fasting conditions and to estimate pharmacokinetic parameters of P5P.
# Subjects were assigned to one of the four groups (six subjects per group) under fasting conditions.
# Concentrations of pyridoxal-5′-phosphate (P5P) were measured from the plasma samples collected over a 24-bour interval after dosing in each phase.
# Pharmacokinetic parameters: AUCt, AUCinf, Cmax, Tmax, Kel, Thalf, Vd, CL, MRT and F were estimated based on pyridoxal-5′-phosphate (P5P) plasma levels for each subject that was in the final data set.
# The test product used was a P5P Intravenous Injectable Solution, 50 mg/ml, which was prepared in accordance with the methods of Example 1 (CanAm BioResearch Inc. Canada); Lot No.: LP1459: Manufacturing Date: 12/03. A single 1, 5, 10 or 20 mg/kg dose was given by intravenous injection. The duration of treatment was a single dose.
# Secondary Endpoint—Pharmacokinetic (PK) Parameters—Plasma concentrations of pyridoxal-5′-phosphate (P5P) were measured by a validated analytical method. Based on these concentration levels, AUCt, AUCinf, Cmax, Tmax, Kel, Thalf, Vd, CL, MRT and F were estimated.
# Statistical Methods—Descriptive statistics were calculated by treatments for the estimated pharmacokinetic parameters.
# [2] = Once daily intravenous 10 mg/kg P5P for four days, urinary excretion and renal clearance (Example Four); format: in vivo, human; conditions: 10 mg/kg iv once daily, 4 days, P5P uncorrected, mean; for CL renal: human, urine and plasma, iv, 10 mg/kg, read-out: CLR, renal clearance (converted)
# Description: Data sets analyzed—Six (6) healthy, adult non-smokers were administered intravenously a single daily dose of 10 mg/kb of P5P for four consecutive days and completed the study. In accordance with the study protocol, data from all subjects who completed the study were used for pharmacokinetic and statistical analysis.
# Analytical Methods—Plasma and urine samples were used for analysis. P5P, PAL, and PA levels were determined by HPLC/FLD. The quantitation level was 5 ng/mL for plasma and 100 ng/mL for urine. The sample analysis calibration curve range was 5 ng/mL to 5000 ng/mL for plasma and 100 ng/mL to 50,000 ng/mL for urine.
# Total and Renal Clearance—Total body clearance was estimated for P5P and was calculated as Dose/AUC0-inf.
# [3] = 1 mg/kg, Group 1, P5P 1 mg/kg single iv, plasma P5P, mean
# [4] = 1 mg/kg, P5P 1 mg/kg single iv bolus, fasting
# [5] = 5 mg/kg, Group 2, P5P 5 mg/kg single iv, plasma P5P, mean
# [6] = 5 mg/kg, P5P 5 mg/kg single iv bolus, fasting
# [7] = 10 mg/kg, Group 3, P5P 10 mg/kg single iv, plasma P5P, mean
# [8] = 10 mg/kg, Group 4, dose 10 mg/kg, single iv, plasma P5P, mean
# [9] = 10 mg/kg, P5P 10 mg/kg single iv bolus, fasting
# [10] = 20 mg/kg, P5P 20 mg/kg single iv bolus, fasting
# [11] = ln(pK Parameter) = b0 + b1 * ln (Dose)
# [12] = ln(pK Parameter) = b0 + b1 * ln (Dose), single iv 1-20 mg/kg
smiles,measurement,setting,value
"Cc1ncc(COP(=O)(O)O)c(C=O)c1O [P5P, Pyridoxal 5′-phosphate, reference compound]",Kel,"[1]; Group 1, P5P 1 mg/kg single iv, plasma P5P, mean",0.14 h⁻¹
same,Kel,"[1]; Group 2, P5P 5 mg/kg single iv, plasma P5P, mean",0.118 h⁻¹
same,Kel,"[1]; Group 3, P5P 10 mg/kg single iv, plasma P5P, mean",0.12 h⁻¹
same,Kel,"[1]; Group 4, dose 10 mg/kg, single iv, plasma P5P, mean",0.14 h⁻¹
same,Cmax,[1]; [3],20 µg/mL
same,MRT,[1]; [3],3.73 h
same,Tmax,[1]; [3],8.4 min
same,Vd,[1]; [3],13 L
same,clearance,[1]; [3],29.3 mL/min
same,AUC,"[1]; 1 mg/kg, Group 1, P5P 1 mg/kg single iv, plasma P5P, mean, read-out: AUC (O-t)",38.4 µg·h/mL
same,AUC,"[1]; 1 mg/kg, Group 1, P5P 1 mg/kg single iv, plasma P5P, mean, read-out: AUC (o-inf)",39.1 µg·h/mL
same,half-life,"[1]; 1 mg/kg, Group 1, P5P 1 mg/kg single iv, plasma P5P, mean, read-out: T½ (converted)",5.11 h
same,Cmax,[1]; [4],20 ± 2.95 µg/mL
same,Tmax,[1]; [4],8.4 ± 4.2 min
same,half-life,"[1]; 1 mg/kg, P5P 1 mg/kg single iv bolus, fasting, read-out: T½ (converted)",5.11 ± 0.98 h
same,Cmax,[1]; [5],98.8 µg/mL
same,MRT,[1]; [5],3.52 h
same,Tmax,[1]; [5],8.4 min
same,Vd,[1]; [5],16.3 L
same,clearance,[1]; [5],32.1 mL/min
same,AUC,"[1]; 5 mg/kg, Group 2, P5P 5 mg/kg single iv, plasma P5P, mean, read-out: AUC (O-t)",173 µg·h/mL
same,AUC,"[1]; 5 mg/kg, Group 2, P5P 5 mg/kg single iv, plasma P5P, mean, read-out: AUC (o-inf)",176 µg·h/mL
same,half-life,"[1]; 5 mg/kg, Group 2, P5P 5 mg/kg single iv, plasma P5P, mean, read-out: T½ (converted)",5.89 h
same,Cmax,[1]; [6],98.8 ± 16 µg/mL
same,Tmax,[1]; [6],8.4 ± 4.2 min
same,half-life,"[1]; 5 mg/kg, P5P 5 mg/kg single iv bolus, fasting, read-out: T½ (converted)",5.89 ± 0.39 h
same,Cmax,[1]; [7],220 µg/mL
same,MRT,[1]; [7],3.11 h
same,Tmax,[1]; [7],6 min
same,Vd,[1]; [7],18 L
same,clearance,[1]; [7],35.2 mL/min
same,AUC,"[1]; 10 mg/kg, Group 3, P5P 10 mg/kg single iv, plasma P5P, mean, read-out: AUC (o-inf)",312 µg·h/mL
same,half-life,"[1]; 10 mg/kg, Group 3, P5P 10 mg/kg single iv, plasma P5P, mean, read-out: T½ (converted)",5.81 h
same,Cmax,[1]; [8],424 µg/mL
same,MRT,[1]; [8],3.32 h
same,Tmax,[1]; [8],9 min
same,Vd,[1]; [8],17.5 L
same,clearance,[1]; [8],39.8 mL/min
same,AUC,"[1]; 10 mg/kg, Group 4, dose 10 mg/kg, single iv, plasma P5P, mean, read-out: AUC (O-t)",577 µg·h/mL
same,AUC,"[1]; 10 mg/kg, Group 4, dose 10 mg/kg, single iv, plasma P5P, mean, read-out: AUC (o-inf)",585 µg·h/mL
same,half-life,"[1]; 10 mg/kg, Group 4, dose 10 mg/kg, single iv, plasma P5P, mean, read-out: T½ (converted)",5.03 h
same,Cmax,[1]; [9],220 ± 9.52 µg/mL
same,Tmax,[1]; [9],6 ± 1.8 min
same,half-life,"[1]; 10 mg/kg, P5P 10 mg/kg single iv bolus, fasting, read-out: T½ (converted)",5.87 ± 0.89 h
same,Cmax,[1]; [10],424 ± 96.9 µg/mL
same,Tmax,[1]; [10],9 ± 4.2 min
same,half-life,"[1]; 20 mg/kg, P5P 20 mg/kg single iv bolus, fasting, read-out: T½ (converted)",5.03 ± 0.72 h
same,half-life,"[1]; over all single iv doses of P5P (1-20 mg/kg), read-out: apparent elimination half-life (converted)",5 to 6 h
same,AUC(0-t),"[1]; P5P 1 mg/kg single iv bolus, fasting",38.4 ± 4.61 µg·h/mL
same,AUC(0-t),"[1]; P5P 5 mg/kg single iv bolus, fasting",173 ± 31.9 µg·h/mL
same,AUC(0-t),"[1]; P5P 10 mg/kg single iv bolus, fasting",308 ± 45.5 µg·h/mL
same,AUC(0-t),"[1]; P5P 20 mg/kg single iv bolus, fasting",577 ± 62.5 µg·h/mL
same,"Significance of b1, lnAUCi",[1]; [11],<0.0001
same,"Significance of b1, lnCl",[1]; [11],0.0128
same,"Significance of b1, lnCmax",[1]; [11],<0.0001
same,"Significance of b1, lnMRT",[1]; [11],0.1568
same,"Significance of b1, lnThalf",[1]; [11],0.6177
same,"Coef. for Dose (b1), lnAUCi",[1]; [12],0.90
same,"Coef. for Dose (b1), lnCl",[1]; [12],0.10
same,"Coef. for Dose (b1), lnCmax",[1]; [12],1.03
same,"Coef. for Dose (b1), lnMRT",[1]; [12],−0.05
same,"Coef. for Dose (b1), lnThalf",[1]; [12],0.02
same,"Intercept (b0), lnAUCi",[1]; [12],3.67
same,"Intercept (b0), lnCl",[1]; [12],7.44
same,"Intercept (b0), lnCmax",[1]; [12],2.98
same,"Intercept (b0), lnMRT",[1]; [12],1.29
same,"Intercept (b0), lnThalf",[1]; [12],1.67
same,"bioavailability, intravenous versus oral",[1]; single iv bolus vs single oral tablets,greater when intravenously administered rather than orally administered
same,"Ae0-t, total amount excreted in urine",[2]; Day 1,848625 ng
same,"Ae0-t, total amount excreted in urine",[2]; Day 4,558650 ng
same,CL renal,[2]; Day 1,0.0465 mL/min
same,CL renal,[2]; Day 4,0.029 mL/min
